Experimental data published in patent US20230303570A1, “KINASE INHIBITORS AND USES THEREOF” (ABM Therapeutics Corporation, priority 2020, published 2023).

Assays:
RET = RET (Homo sapiens, UniProt P07949); experiment: RET kinase mobility shift assay; format: biochemical
Procedure: (§1) The effect of the compounds on the activity of cKit, RET and AXL kinases were assessed by Mobility shift assay. • 1. 1× kinase base buffer and stop buffer for testing kinases were prepared • 1-1) 1× Kinase base buffer (50 mM HEPES, pH 7.5, 0.01% Triton X-100) • 1-2) Stop buffer (100 mM HEPES, pH 7.5, 0.015% Brij-35, 0.2% Coating Reagent #3, 50 mM EDTA) • 2. Compound and assay plate preparation: the compound was diluted to 50× of the final desired highest inhibitor concentration in reaction by 100% DMSO. 100 μl of this compound dilution was transferred to a well in a 96-well plate. For example, if the highest desired concentration was 5 μM, then 250 μM of compound DMSO solution was prepared in this step. For all compounds, the compound was serially diluted by transferring 10 μl to 70 μl of 100 DMSO in the next well and so forth for a total of 5 concentrations. 100 μl of 100% DMSO was added to two empty wells for no compound control and no enzyme control in the same 96-well plate. The plate was labeled as source plate. The intermediate plate was prepared by transferring 10 μl of compound from source plate to a new 96-well plate as the intermediate plate, adding 90 μl of 1× kinase buffer to each well of the intermediate plate, mixing the compounds in intermediate plate for 10 min on shaker. 5 μl of each well from the 96-well intermediate plate were transferred to a 384-well plate in duplicates. For example, A1 of the 96-well plate was transferred to A1 and A2 of the 384-well plate. A2 of the 96-well plate was transferred to A3 and A4 of the 384-well plate, and so on. • 4. Kinase reaction: The assay plate already contained 5 μl of compound in 10% DMSO. A 2.5× enzyme solution was prepared by adding kinases (cKit, RET, or AXL) and DTT in 1× kinase base buffer. 2.5× enzyme solution was transferred to the assay plate (by adding 10 μl of 2.5× enzyme solution to each well of the 384-well assay plate). The plate was incubated at room temperature for 10 min. 2.5× peptide solution was prepared by adding FAM-labeled peptide, ATP, MgCl2 in the 1× kinase base buffer. 2.5× peptide solution was added to the assay plate by adding 10 μl of 2.5× peptide solution to each well of the 384-well assay plate. The plate was incubated at 28° C. for the specified period of time. 25 μl of stop buffer was added to stop reaction. Data was collected on Caliper.

Axl = biological target: T1, Axl (Homo sapiens, UniProt P30530); experiment: AXL kinase mobility shift assay; format: biochemical
T1 sequence (P30530 26-894): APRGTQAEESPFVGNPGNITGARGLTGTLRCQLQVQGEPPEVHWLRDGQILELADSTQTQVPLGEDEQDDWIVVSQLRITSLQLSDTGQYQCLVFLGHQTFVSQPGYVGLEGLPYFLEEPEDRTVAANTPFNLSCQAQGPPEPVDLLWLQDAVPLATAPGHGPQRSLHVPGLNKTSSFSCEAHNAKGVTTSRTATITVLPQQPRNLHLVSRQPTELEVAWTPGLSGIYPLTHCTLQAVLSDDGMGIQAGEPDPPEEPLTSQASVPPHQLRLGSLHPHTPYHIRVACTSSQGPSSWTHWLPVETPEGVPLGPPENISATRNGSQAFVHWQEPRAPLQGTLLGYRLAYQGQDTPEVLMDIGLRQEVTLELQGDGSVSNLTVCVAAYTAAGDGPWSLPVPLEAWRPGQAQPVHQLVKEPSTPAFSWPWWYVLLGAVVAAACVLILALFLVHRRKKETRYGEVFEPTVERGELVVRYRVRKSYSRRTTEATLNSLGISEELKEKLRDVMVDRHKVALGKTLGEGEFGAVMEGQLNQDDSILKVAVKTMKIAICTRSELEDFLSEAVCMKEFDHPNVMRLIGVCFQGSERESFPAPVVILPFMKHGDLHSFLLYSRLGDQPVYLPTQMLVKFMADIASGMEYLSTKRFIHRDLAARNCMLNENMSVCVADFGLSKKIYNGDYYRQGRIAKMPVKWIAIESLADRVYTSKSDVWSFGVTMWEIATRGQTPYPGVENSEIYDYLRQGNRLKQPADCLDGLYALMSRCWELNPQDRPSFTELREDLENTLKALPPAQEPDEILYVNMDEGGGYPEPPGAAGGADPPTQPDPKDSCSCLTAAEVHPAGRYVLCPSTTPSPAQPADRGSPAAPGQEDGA
Procedure: as §1

HPK1 (MAP4K1) = HPK1 (MAP4K1) (Homo sapiens, UniProt Q92918); experiment: HPK1 (MAP4K1) kinase Lantha screen assay; format: biochemical
Procedure, shortened: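 Recombinant MAP4K1 preincubated 10 min with compound (6-point dilution, duplicates) in 50 mM HEPES pH 7.5, 10 mM MgCl2, then reacted with Fluorescein-PKC substrate and ATP for 90 min at room temperature. Antibody detection solution stopped reaction; after 60 min, TR-FRET read at ex 340 nm, em 520/495 nm.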

PAK1 [1] = biological target: T2, PAK1 (Homo sapiens, UniProt Q13153); conditions: background statement on known PAK1 inhibitors; result in words only; cited from earlier work
c-Kit = c-Kit (Homo sapiens, UniProt P10721); experiment: cKit kinase mobility shift assay; format: biochemical
Procedure, shortened: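 Human kinase with DTT in 50 mM HEPES pH 7.5 and 0.01% Triton X-100 was preincubated with compound for 10 min at room temperature, using a 5-point dilution in duplicate. FAM-labeled peptide, ATP and MgCl2 were then added and the reaction run at 28° C. Reactions were stopped with EDTA buffer and peptide conversion was read by Caliper mobility shift.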

PAK1 [2] = biological target: T2, PAK1; experiment: In vitro kinase assay, PAK1 (Caliper EZ Reader conversion); format: biochemical; design: purchased Carna Biosciences
Procedure, shortened: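 Human PAK1 was preincubated with compound (6 concentrations, 4-fold dilutions) for 10 min at room temperature, then reacted with substrate mix for 30 and 60 min. Substrate conversion was read by Caliper mobility shift. IC50 was fitted by variable-slope log(inhibitor)–response, normalised to FRAX597 and buffer controls.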

P-glycoprotein (MDR1) = experiment: in vitro; conditions: dog, MDCK-MDR1

Chain of RET (P07949 29-1114, species assumed): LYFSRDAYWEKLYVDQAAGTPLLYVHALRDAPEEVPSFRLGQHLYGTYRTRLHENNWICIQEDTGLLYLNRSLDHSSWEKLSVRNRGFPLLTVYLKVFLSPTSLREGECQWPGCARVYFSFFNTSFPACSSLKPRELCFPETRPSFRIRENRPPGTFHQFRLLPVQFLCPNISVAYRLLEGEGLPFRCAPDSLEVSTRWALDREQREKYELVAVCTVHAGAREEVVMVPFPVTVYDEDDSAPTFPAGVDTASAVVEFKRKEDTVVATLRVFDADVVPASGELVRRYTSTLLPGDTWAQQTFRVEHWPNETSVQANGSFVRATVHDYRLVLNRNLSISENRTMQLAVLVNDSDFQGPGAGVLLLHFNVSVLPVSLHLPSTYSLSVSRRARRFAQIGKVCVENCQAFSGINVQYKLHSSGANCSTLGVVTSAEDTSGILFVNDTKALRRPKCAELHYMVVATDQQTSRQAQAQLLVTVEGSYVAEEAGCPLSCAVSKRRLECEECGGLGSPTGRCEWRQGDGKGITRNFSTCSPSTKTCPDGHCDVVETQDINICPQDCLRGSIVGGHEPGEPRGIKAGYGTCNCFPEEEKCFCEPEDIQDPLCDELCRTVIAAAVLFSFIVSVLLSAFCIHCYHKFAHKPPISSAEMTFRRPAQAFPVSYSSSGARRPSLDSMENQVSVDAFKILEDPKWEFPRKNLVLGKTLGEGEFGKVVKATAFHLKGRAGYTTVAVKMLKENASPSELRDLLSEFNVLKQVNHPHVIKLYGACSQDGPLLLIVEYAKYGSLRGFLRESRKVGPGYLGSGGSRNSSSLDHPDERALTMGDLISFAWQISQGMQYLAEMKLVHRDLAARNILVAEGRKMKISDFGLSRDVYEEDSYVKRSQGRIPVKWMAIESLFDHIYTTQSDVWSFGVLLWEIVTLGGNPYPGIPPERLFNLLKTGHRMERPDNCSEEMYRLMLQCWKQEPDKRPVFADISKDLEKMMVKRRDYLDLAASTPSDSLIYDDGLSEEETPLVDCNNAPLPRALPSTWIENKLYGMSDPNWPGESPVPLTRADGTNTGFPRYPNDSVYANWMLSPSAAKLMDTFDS
Chain of HPK1 (MAP4K1) (Q92918 whole entry, species assumed): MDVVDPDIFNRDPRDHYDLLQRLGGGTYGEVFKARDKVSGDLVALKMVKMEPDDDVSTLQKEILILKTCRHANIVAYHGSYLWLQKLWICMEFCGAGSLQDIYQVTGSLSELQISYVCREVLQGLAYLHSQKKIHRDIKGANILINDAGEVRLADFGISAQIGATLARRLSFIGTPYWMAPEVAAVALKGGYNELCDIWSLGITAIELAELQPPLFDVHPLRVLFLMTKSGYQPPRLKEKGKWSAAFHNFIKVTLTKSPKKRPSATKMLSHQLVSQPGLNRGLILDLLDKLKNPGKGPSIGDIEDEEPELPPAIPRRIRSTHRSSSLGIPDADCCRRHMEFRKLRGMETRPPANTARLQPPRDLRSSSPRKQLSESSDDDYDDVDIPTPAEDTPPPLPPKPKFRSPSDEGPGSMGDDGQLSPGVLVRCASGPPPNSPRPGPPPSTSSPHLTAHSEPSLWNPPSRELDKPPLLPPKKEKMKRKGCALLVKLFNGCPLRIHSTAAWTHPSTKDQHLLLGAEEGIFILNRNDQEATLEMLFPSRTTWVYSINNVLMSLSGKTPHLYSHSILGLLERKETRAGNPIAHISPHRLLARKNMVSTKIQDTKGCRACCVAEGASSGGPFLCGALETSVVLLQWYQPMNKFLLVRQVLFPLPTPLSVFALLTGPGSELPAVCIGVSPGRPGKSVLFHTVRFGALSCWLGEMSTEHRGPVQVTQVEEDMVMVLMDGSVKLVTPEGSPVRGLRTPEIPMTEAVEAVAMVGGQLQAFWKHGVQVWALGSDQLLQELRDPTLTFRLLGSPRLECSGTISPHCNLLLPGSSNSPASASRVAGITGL
Chain of c-Kit (P10721 26-976): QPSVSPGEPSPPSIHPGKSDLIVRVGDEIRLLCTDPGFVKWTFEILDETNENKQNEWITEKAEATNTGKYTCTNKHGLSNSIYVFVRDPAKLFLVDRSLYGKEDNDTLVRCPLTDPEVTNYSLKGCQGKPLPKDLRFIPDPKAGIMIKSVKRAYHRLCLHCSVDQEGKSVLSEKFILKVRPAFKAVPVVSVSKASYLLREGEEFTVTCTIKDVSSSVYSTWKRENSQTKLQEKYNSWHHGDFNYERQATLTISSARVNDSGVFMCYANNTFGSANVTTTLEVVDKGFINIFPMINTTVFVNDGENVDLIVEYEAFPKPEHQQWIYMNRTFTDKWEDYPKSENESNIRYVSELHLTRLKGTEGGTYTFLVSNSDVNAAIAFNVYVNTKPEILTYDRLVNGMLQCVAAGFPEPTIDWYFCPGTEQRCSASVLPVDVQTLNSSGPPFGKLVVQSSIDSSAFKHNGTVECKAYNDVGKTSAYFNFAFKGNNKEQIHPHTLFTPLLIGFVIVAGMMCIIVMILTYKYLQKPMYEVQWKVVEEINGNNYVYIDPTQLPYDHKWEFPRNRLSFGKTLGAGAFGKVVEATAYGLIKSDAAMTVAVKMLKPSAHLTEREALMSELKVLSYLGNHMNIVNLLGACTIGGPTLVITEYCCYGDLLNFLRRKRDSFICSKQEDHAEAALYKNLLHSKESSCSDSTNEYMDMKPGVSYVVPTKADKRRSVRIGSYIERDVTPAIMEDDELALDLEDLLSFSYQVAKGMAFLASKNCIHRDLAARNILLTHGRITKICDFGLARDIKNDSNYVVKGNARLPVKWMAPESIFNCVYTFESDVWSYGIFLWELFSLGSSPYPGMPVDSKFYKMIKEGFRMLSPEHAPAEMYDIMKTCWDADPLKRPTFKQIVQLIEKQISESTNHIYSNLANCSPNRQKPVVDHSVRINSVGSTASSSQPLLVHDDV
T2 sequence (Q13153 whole entry): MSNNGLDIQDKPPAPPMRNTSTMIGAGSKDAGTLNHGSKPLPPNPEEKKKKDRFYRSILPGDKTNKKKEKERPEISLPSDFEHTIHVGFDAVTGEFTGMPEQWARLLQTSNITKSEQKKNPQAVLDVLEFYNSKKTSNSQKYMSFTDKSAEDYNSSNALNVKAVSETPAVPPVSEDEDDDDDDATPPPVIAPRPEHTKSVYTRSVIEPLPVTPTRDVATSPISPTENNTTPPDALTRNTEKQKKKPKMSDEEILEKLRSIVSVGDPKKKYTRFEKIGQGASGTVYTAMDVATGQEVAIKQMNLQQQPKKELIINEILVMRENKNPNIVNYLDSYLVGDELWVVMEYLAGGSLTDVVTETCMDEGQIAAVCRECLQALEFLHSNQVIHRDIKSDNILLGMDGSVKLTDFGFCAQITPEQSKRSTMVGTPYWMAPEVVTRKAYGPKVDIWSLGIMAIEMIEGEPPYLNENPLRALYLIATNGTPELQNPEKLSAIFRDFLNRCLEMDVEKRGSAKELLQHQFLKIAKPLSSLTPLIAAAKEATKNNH

Structure (SMILES)	IC50 (RET) [µM]	IC50 (Axl) [µM]	IC50 (HPK1 (MAP4K1)) [µM]	inhibition of the PAK1 enzyme (PAK1 [1])	IC50 (c-Kit) [µM]	IC50 (PAK1 [2]) [µM]	Papp A→B at 120 min (P-glycoprotein (MDR1)) [×10⁻⁶ cm/s]	Papp B→A at 120 min (P-glycoprotein (MDR1)) [×10⁻⁶ cm/s]	efflux ratio at 120 min (P-glycoprotein (MDR1))
CNc1ncc2c(n1)N1CCN=C1C(c1ccc(NC(=O)C3(C(=O)Nc4ccc(F)cc4)CC3)cc1F)=C2 [Compound 340, N-(3-fluoro-4-(2-(methylamino)-8,9-dihydroimidazo[1′,2′:1,6]pyrido[2,3-d]pyrimidin-6-yl)phenyl)-N-(4-fluorophenyl)cyclopropane-1,1-dicarboxamide]	0.1 to 10	> 10	> 10						
CNc1ncc2cc(-c3ccc(-c4cccc(C)n4)cc3Cl)c(=O)n(C[C@H]3OC[C@H](N)CO3)c2n1 [Compound G-5555]				potent PAK1 inhibitors					
CNc1ncc2c(n1)N1CCN=C1C(c1cc(NC(=O)C3(C(=O)Nc4ccc(F)cc4)CC3)ccc1F)=C2 [Compound 341, N-(4-fluoro-3-(2-(methylamino)-8,9-dihydroimidazo[1′,2′:1,6]pyrido[2,3-d]pyrimidin-6-yl)phenyl)-N-(4-fluorophenyl)cyclopropane-1,1-dicarboxamide]	0.1 to 10	> 10	< 0.1						
CNc1ncc2c(n1)N1CCN=C1C(c1cc(NC(=O)c3cc(C(F)(F)F)ccn3)ccc1C)=C2 [Compound 107, N-(4-methyl-3-(2-(methylamino)-8,9-dihydroimidazo[1′,2′:1,6]pyrido[2,3-d]pyrimidin-6-yl)phenyl)-4-(trifluoromethyl)picolinamide]	< 0.1		0.1 to 10		< 0.1	> 10			
Cc1ccc(NC(=O)c2cc(C(F)(F)F)ccn2)cc1C1=Cc2cnc(NC3CCOCC3)nc2N2CCN=C12 [Compound 115, N-(4-methyl-3-(2-((tetrahydro-2H-pyran-4-yl)amino)-8,9-dihydroimidazo[1′,2′:1,6]pyrido[2,3-d]pyrimidin-6-yl)phenyl)-4-(trifluoromethyl)picolinamide hydrogen chloride]			< 0.1		< 0.1		22.8	36.9	1.6
